Reference: PubChem BioAssay (NCI)
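GI50: concentration for 50% inhibition of growth. The concentration for full growth arrest is given as TGI.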

Key:
Experiment in all cases: NCI anticancer screen, dose series, 384-well format
CAKI-1 renal = system: CAKI-1 renal
K-562 leukemia = system: K-562 leukemia
M14 melanoma = system: M14 melanoma
MDA-MB-468 breast = system: MDA-MB-468 breast
NCI-H322M lung = system: NCI-H322M lung
NCI-H522 lung = system: NCI-H522 lung
OVCAR-3 ovarian = system: OVCAR-3 ovarian
OVCAR-5 ovarian = system: OVCAR-5 ovarian
SF-268 CNS = system: SF-268 CNS
SF-295 CNS = system: SF-295 CNS
SK-MEL-2 melanoma = system: SK-MEL-2 melanoma
SK-MEL-28 melanoma = system: SK-MEL-28 melanoma
SN12C renal = system: SN12C renal

Question: What does the source list for `COc1cc2c(Nc3cc(Cl)c(OC)c(Cl)c3)c(C#N)cnc2cc1OCCCN1CCN(C)CC1`?
Answer: GI50 (CAKI-1 renal): 0.18 µM; TGI (CAKI-1 renal): 1.34 µM; GI50 (K-562 leukemia): 0.166 µM; TGI (K-562 leukemia): 0.33 µM; GI50 (M14 melanoma): 0.191 µM; TGI (M14 melanoma): 0.633 µM; GI50 (MDA-MB-468 breast): 0.288 µM; TGI (MDA-MB-468 breast): 0.618 µM; GI50 (NCI-H322M lung): 0.234 µM; TGI (NCI-H322M lung): 1.11 µM; GI50 (NCI-H522 lung): 0.0477 µM; TGI (NCI-H522 lung): 0.234 µM; GI50 (OVCAR-3 ovarian): 0.323 µM; TGI (OVCAR-3 ovarian): 1.28 µM; GI50 (OVCAR-5 ovarian): 1.2 µM; TGI (OVCAR-5 ovarian): 2.7 µM; GI50 (SF-268 CNS): 0.604 µM; TGI (SF-268 CNS): 2.06 µM; GI50 (SF-295 CNS): 0.909 µM; TGI (SF-295 CNS): 2.15 µM; GI50 (SK-MEL-2 melanoma): 0.456 µM; TGI (SK-MEL-2 melanoma): 1.35 µM; GI50 (SK-MEL-28 melanoma): 1.44 µM; TGI (SK-MEL-28 melanoma): 2.8 µM; GI50 (SN12C renal): 0.321 µM; TGI (SN12C renal): 1.43 µM
